Measurements: US20210284691A1, “CBX8 CHROMDOMAIN INHIBITORS AND THE USES THEREOF” (Purdue Research Foundation, priority 2019, published 2021)
Square brackets hold non-standard residues; d marks the D form. Peptide text beside a SMILES is read from it. * marks the point of attachment. Tyr(3-Cl) = N[C@@H](Cc1ccc(O)c(Cl)c1)C(=O)O; Benzoyl(3,5-Cl2) = O=C(c1cc(Cl)cc(Cl)c1)*; Lys(Et2) = CCN(CC)CCCC[C@H](N)C(=O)O; Gly(cPent) = N[C@H](C(=O)O)C1CCCC1; NH(propargyl) = C#CCN*

Legend:
CBX2 ChD = target: T1, CBX2 ChD (Homo sapiens, UniProt Q14781); experiment: Direct fluorescence polarization (FP) binding assay
T1 construct: CBX chromodomain constructs; host or cells: E. coli BL21 CodonPlus RIL
T1 sequence (Q14781 12-70 limits assumed): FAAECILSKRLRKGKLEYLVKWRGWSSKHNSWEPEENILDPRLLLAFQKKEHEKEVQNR

[1] = target: T2, CBX7 binding to chromatin (Homo sapiens, UniProt O95931); experiment: ChIP-qPCR in Hs68 fibroblast cells; assay type: cell-based; details: 100 μM, 4 h
T2 construct: endogenous in cells; host or cells: Hs68 fibroblasts (A17); HEK293T (A20)
Description: ChIP: Hs68 cells were seeded at 4×10^6 in a 10 cm cell culture plates 16 hours prior to treatment. Cells were treated with 100 μM SW2-110A or DMSO for four hours. ChIP was performed as described in Connelly et al., 2018. Birefly, cells were washed with PBS and fixed on the plate with CiA Fix buffer (50 mM HEPES, pH 8.0, 1 mM EDTA, 0.5 mM ETGA, 100 mM NaCl) and 1% formaldehyde for 10 min at room temperature. Crosslinking was quenched with 0.125 M glycine for 5 min at 4° C. Cells were washed once with PBS and lifted off the plate then resuspended in CiA NP Rinse buffer 1 (50 mM HEPES pH 8.0, 140 mM NaCl, 1 mM EDTA, 10% glycerol, 0.5% NP-40, 0.25% Triton X) for 10 min. Cells were pelleted at 1200×g for 5 min at 4° C. The supernatant was removed, and the cells were resuspended in CiA NP rinse buffer 2 (10 mM Tris pH 8.0, 1 mM EDTA, 0.5 mM EGTA, 200 mM NaCl). Cells were collected by centrifugation, 1200×g for 5 min. Supernatant was removed and the cells were washed twice with shearing buffer (0.1% SDS, 1 mM EDTA, 10 mM Tris HCl, pH 8.0). Cells were resuspended in shearing buffer and sonicated for 7 min with the probe (Branson). Lysate was centrifuged at 21,000×g for 15 min to remove debris. […]
qPCR: qPCR was performed on the isolated ChIP DNA using SYBR master mix (Thermo) and run on the BioRad CFX thermo cycler. […] Enrichment was determined by percent input. […]

T2 sequence (O95931 whole entry): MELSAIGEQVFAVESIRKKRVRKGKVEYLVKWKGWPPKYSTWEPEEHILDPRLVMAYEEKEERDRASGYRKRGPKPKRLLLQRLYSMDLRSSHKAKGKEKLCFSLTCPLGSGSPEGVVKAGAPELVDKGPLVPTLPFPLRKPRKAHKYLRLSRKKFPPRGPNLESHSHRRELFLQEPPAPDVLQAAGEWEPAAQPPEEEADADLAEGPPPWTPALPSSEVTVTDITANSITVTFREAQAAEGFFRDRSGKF

selectivity for CBX2 over the other paralogs (CBX2 ChD; calculated from Kd values): at least 24 fold
Kd (CBX2 ChD; read-out: Kd to CBX2): ~80 nM
CBX7 binding at target loci, ChIP-qPCR [1]: not CBX7 binding
Structure (SMILES): C#CCNC(=O)[C@H](CO)NC(=O)[C@H](CCCCN(CC)CC)NC(=O)[C@@H](NC(=O)[C@@H](NC(=O)[C@H](Cc1ccc(O)c(Cl)c1)NC(=O)c1cc(Cl)cc(Cl)c1)C1CCCC1)[C@@H](C)CC [SW2_152F] ({Benzoyl(3,5-Cl2)}-[Tyr(3-Cl)][Gly(cPent)]I[Lys(Et2)]S-{NH(propargyl)})
